Test results from patent US10758534B2 (Vertex Pharmaceuticals Incorporated, priority 2014, dated 2020).

Target: T1, F508del (Homo sapiens, UniProt P13569, DEL508-508)
T1 construct: expressed in transfected cells
Assay: Protocol 2: FRET membrane potential optical assay (VIPR), identification of correction compounds
Type: cell-based
Settings: Table 3; compounds of Table 1 as modulators of CFTR activity; protocol not stated
Summary of the method: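 FRET read-out (CC2-DMPE donor, DiSBAC2(3) voltage-sensitive acceptor) of membrane depolarization on VIPR II. Corrector candidates incubated 16 hrs at 37° C. with NIH3T3 cells expressing F508del; temperature correction at 27° C. as positive control; stimulation by 10 μM forskolin, 20 μM genistein, chloride-free gluconate bath.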

T1 sequence (P13569 with tags, fused parts or gaps DEL508-508): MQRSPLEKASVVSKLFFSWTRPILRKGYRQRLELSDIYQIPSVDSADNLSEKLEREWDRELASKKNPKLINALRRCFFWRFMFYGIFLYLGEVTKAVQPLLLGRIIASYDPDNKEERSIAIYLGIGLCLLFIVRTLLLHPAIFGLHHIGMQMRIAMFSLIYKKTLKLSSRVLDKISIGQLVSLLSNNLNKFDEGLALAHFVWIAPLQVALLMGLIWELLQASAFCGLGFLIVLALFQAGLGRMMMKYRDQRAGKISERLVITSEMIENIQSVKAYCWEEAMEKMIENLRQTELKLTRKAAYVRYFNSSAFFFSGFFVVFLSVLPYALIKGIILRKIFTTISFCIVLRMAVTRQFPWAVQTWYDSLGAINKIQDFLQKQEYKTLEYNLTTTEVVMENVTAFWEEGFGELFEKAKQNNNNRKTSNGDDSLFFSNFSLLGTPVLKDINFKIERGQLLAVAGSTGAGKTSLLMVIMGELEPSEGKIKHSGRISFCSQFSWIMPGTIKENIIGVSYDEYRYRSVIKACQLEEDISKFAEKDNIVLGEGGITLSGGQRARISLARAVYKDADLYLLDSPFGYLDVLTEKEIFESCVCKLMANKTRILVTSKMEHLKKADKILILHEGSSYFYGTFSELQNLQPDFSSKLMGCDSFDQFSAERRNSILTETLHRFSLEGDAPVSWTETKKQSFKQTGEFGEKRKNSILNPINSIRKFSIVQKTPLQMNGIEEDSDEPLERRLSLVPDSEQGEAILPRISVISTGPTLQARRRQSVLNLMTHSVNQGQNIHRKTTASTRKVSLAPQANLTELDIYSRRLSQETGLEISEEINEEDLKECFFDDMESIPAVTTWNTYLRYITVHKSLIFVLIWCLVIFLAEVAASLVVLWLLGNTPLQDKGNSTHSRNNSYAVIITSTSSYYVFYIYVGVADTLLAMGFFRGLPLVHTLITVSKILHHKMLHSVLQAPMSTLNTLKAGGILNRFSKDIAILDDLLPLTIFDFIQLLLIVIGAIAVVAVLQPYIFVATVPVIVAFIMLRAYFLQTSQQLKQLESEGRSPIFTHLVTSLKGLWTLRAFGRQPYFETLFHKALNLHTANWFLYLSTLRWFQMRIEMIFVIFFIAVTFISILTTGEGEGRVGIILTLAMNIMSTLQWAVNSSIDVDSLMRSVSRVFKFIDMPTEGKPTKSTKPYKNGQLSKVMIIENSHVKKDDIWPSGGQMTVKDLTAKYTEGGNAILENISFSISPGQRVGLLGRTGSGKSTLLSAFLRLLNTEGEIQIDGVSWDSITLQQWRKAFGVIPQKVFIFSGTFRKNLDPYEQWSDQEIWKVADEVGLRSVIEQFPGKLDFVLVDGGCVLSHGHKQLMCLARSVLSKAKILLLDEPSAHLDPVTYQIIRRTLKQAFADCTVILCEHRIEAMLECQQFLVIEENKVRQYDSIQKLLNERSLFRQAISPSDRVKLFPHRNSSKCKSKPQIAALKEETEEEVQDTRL

| SMILES | EC30 |
| --- | --- |
| Cc1cc(C)c(Cc2ccc(C(C)(C)C)nc2C(=O)NS(=O)(=O)c2ccccc2)c(C)c1 [Compound 22, N-(benzenesulfonyl)-6-tert-butyl-3-[(2,4,6-trimethylphenyl)methyl]pyridine-2-carboxamide] | +++ (“+++” means <3 uM) |
| Cc1cc(C)c(Cn2c(C(=O)NS(=O)(=O)c3cc(N)ccn3)cc3ccccc32)c(C)c1 [Compound 23, N-[(4-amino-2-pyridyl)sulfonyl]-1-[(2,4,6-trimethylphenyl)methyl]indole-2-carboxamide] | ++ (“++” means between 3 uM and 10 uM) |
| Cc1cc(C)c(Cn2c(C(=O)NS(=O)(=O)c3ccncc3)cc3ccc(Cl)cc32)c(C)c1 [Compound 24, 6-chloro-N-(4-pyridylsulfonyl)-1-[(2,4,6-trimethylphenyl)methyl]indole-2-carboxamide] | ++ (“++” means between 3 uM and 10 uM) |
| Cc1cc(C)c(Cn2c(C(=O)NS(=O)(=O)c3ccncc3)cc3cc(C)ccc32)c(C)c1 [Compound 25, 5-methyl-N-(4-pyridylsulfonyl)-1-[(2,4,6-trimethylphenyl)methyl]indole-2-carboxamide] | ++ (“++” means between 3 uM and 10 uM) |
| Cc1cc(C)c(-c2nc(C(C)(C)C)ccc2C(=O)NS(=O)(=O)c2cccc(N)c2)c(C)c1 [Compound 26, N-(3-aminophenyl)sulfonyl-6-tert-butyl-2-(2,4,6-trimethylphenyl)pyridine-3-carboxamide] | ++ (“++” means between 3 uM and 10 uM) |
| COc1ccc(F)cc1-c1cc(C(=O)NS(=O)(=O)c2ccccc2)n(Cc2c(C)cccc2C)n1 [Compound 27, N-(benzenesulfonyl)-2-[(2,6-dimethylphenyl)methyl]-5-(5-fluoro-2-methoxy-phenyl)pyrazole-3-carboxamide] | +++ (“+++” means <3 uM) |
| Cc1cccc(C)c1Cn1nc(-c2ccc(Cl)cc2)cc1C(=O)NS(=O)(=O)c1ccccc1 [Compound 28, N-(benzenesulfonyl)-5-(4-chlorophenyl)-2-[(2,6-dimethylphenyl)methyl]pyrazole-3-carboxamide] | +++ (“+++” means <3 uM) |
| CCOc1ccc(-c2cc(C(=O)NS(=O)(=O)c3ccccc3)n(Cc3c(C)cccc3C)n2)cc1 [Compound 29, N-(benzenesulfonyl)-2-[(2,6-dimethylphenyl)methyl]-5-(4-ethoxyphenyl)pyrazole-3-carboxamide] | +++ (“+++” means <3 uM) |
| CCc1cccc2c1CN(Cc1c(C)cc(C)cc1C)C2C(=O)NS(=O)(=O)c1cccc(N)c1 (stereo not drawn) [Compound 30, N-(3-aminophenyl)sulfonyl-4-ethyl-2-[(2,4,6-trimethylphenyl)methyl]isoindoline-1-carboxamide] | +++ (“+++” means <3 uM) |
| Cc1cccc(-c2nc(C(C)(C)C)ccc2C(=O)NS(=O)(=O)c2cccc(N)n2)c1 [Compound 31, N-[(6-amino-2-pyridyl)sulfonyl]-6-tert-butyl-2-(m-tolyl)pyridine-3-carboxamide] | ++ (“++” means between 3 uM and 10 uM) |
| Cc1cc(C)c(CN2Cc3ccccc3C2C(=O)NS(=O)(=O)c2cc(N)ccn2)c(C)c1 (stereo not drawn) [Compound 32, N-[(4-amino-2-pyridyl)sulfonyl]-2-[(2,4,6-trimethylphenyl)methyl]isoindoline-1-carboxamide] | ++ (“++” means between 3 uM and 10 uM) |
| Cc1cc(C)c(Cn2c(C(=O)NS(=O)(=O)c3ccccc3)cc3cc(F)ccc32)c(C)c1 [Compound 33, N-(benzenesulfonyl)-5-fluoro-1-[(2,4,6-trimethylphenyl)methyl]indole-2-carboxamide] | +++ (“+++” means <3 uM) |
| COc1cccc(S(=O)(=O)NC(=O)c2ccc(C(C)(C)C)nc2Oc2c(C)cc(C)cc2C)n1 [Compound 34, 6-tert-butyl-N-[(6-methoxy-2-pyridyl)sulfonyl]-2-(2,4,6-trimethylphenoxy)pyridine-3-carboxamide] | +++ (“+++” means <3 uM) |
| CC(C)(C)c1cc(C(=O)NS(=O)(=O)c2ccccc2)n(Cc2cc(C(F)(F)F)ccc2F)n1 [Compound 35, N-(benzenesulfonyl)-5-tert-butyl-2-[[2-fluoro-5-(trifluoromethyl)phenyl]methyl]pyrazole-3-carboxamide] | +++ (“+++” means <3 uM) |
| COc1cccc2c1cc(C(=O)NS(=O)(=O)c1ccncc1)n2Cc1c(C)cc(C)cc1C [Compound 36, 4-methoxy-N-(4-pyridylsulfonyl)-1-[(2,4,6-trimethylphenyl)methyl]indole-2-carboxamide] | +++ (“+++” means <3 uM) |
| COc1cc(-c2cc(C(=O)NS(=O)(=O)c3ccccc3)n(Cc3c(C)cccc3C)n2)ccc1Cl [Compound 37, N-(benzenesulfonyl)-5-(4-chloro-3-methoxy-phenyl)-2-[(2,6-dimethylphenyl)methyl]pyrazole-3-carboxamide] | +++ (“+++” means <3 uM) |
| Cc1cc(C)c(Cn2c(C(=O)NS(=O)(=O)c3ccncc3)cc3ccc(C)cc32)c(C)c1 [Compound 38, 6-methyl-N-(4-pyridylsulfonyl)-1-[(2,4,6-trimethylphenyl)methyl]indole-2-carboxamide] | +++ (“+++” means <3 uM) |
| Cc1cc(C)c(Cn2nc(C(C)(C)C)cc2C(=O)NS(=O)(=O)c2cccc(CO)c2)c(C)c1 [Compound 39, 5-tert-butyl-N-[3-(hydroxymethyl)phenyl]sulfonyl-2-[(2,4,6-trimethylphenyl)methyl]pyrazole-3-carboxamide] | ++ (“++” means between 3 uM and 10 uM) |
| COc1ccccc1-c1cc(C(=O)NS(=O)(=O)c2cccc(N)c2)n(C(C)c2ccccc2)n1 (stereo not drawn) [Compound 40, N-(3-aminophenyl)sulfonyl-5-(2-methoxyphenyl)-2-(1-phenylethyl)pyrazole-3-carboxamide] | +++ (“+++” means <3 uM) |
| Cc1cc(C)c(Oc2nc(C(C)(C)C)ccc2C(=O)NS(=O)(=O)c2cn(C)nc2N)c(C)c1 [Compound 41, N-(3-amino-1-methyl-pyrazol-4-yl)sulfonyl-6-tert-butyl-2-(2,4,6-trimethylphenoxy)pyridine-3-carboxamide] | +++ (“+++” means <3 uM) |
| Cc1cc(C)c(Cn2nc(OCc3ccccc3)cc2C(=O)NS(=O)(=O)c2cccc(N)c2)c(C)c1 [Compound 42, N-(3-aminophenyl)sulfonyl-5-benzyloxy-2-[(2,4,6-trimethylphenyl)methyl]pyrazole-3-carboxamide] | ++ (“++” means between 3 uM and 10 uM) |
| COc1ccc(-c2cc(C(=O)NS(=O)(=O)c3ccccc3)n(Cc3c(C)cccc3C)n2)cc1F [Compound 43, N-(benzenesulfonyl)-2-[(2,6-dimethylphenyl)methyl]-5-(3-fluoro-4-methoxy-phenyl)pyrazole-3-carboxamide] | +++ (“+++” means <3 uM) |
| COc1cccnc1S(=O)(=O)NC(=O)c1cc(C(C)(C)C)nn1Cc1c(C)cc(C)cc1C [Compound 44, 5-tert-butyl-N-[(3-methoxy-2-pyridyl)sulfonyl]-2-[(2,4,6-trimethylphenyl)methyl]pyrazole-3-carboxamide] | ++ (“++” means between 3 uM and 10 uM) |
| Cc1cc(C)c(Cn2nc(C(C)(C)C)cc2C(=O)NS(=O)(=O)c2ccccc2)c(C)c1 [Compound 45, N-(benzenesulfonyl)-5-tert-butyl-2-[(2,4,6-trimethylphenyl)methyl]pyrazole-3-carboxamide] | +++ (“+++” means <3 uM) |
